One experiment has as its target T1, human OX1 receptor (Homo sapiens, UniProt O43613).
T1 construct: expressed in transfected cells
T1 sequence (O43613 1-425): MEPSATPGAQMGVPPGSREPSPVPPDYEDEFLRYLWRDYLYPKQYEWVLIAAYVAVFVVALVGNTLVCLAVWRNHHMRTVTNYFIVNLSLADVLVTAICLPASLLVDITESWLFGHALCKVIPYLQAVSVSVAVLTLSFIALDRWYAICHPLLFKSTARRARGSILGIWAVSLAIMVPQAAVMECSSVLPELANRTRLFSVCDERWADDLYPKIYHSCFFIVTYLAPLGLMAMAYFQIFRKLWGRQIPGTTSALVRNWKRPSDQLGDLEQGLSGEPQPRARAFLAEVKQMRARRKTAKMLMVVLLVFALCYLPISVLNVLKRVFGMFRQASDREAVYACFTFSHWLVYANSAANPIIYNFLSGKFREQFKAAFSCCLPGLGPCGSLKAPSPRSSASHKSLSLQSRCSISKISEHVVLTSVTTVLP
The experiment in a line: Inhibition of orexin A-induced increase in intracellular calcium concentration (FLIPR), OX1 receptor expressing CHO-K1 cells. The following applies: CHO-K1 cells stably expressing human OX1 receptor; 0.3 nM orexin A; compound added 5 minutes before; fluo-3 AM; read-out: 50% Inhibition concentration, OX1 receptor. It is filed as cell-based. The source says:
(§1) A cDNA sequence encoding human orexin OX1 receptor or OX2 receptor (see GenBank, accession number AF 041243 and AF 041245) was cloned into the EcoRV-EcoRI site of a mamal expressed plasmid vector pIRESIneo (made by Clontech Laboratories, Inc.) and the PmlI-XbaI site of a mamal expressed plasmid vector pEF/myc/cyto (made by Invitrogen Corp.). The resulting vectors were respectively transfected into Chinese hamster's ovarian cells CHO-K1 (Americam Type Culture Collection, ATCC number CCL-61). Then, cells having resistance to 2 mg/ml of Geneticin (G418, made by Life Technologies, Inc.) were selected to obtain a cell line stably expressing a human OX1 receptor and a cell line stably expressing a human OX2 receptor. The OX1 receptor or OX2 receptor stably expressing cells were made to take up fluo-3, AM (made by Molecualr Probes Inc.), a fluorescent indicator of calcium concentration, and then 0.3 nM of orexin A was added to a suspension of the cells in an assay buffer (Hank's […] salt solution adjusted to pH 7.4 and containing 20 mM HEPES, 0.5% bovine serum albumin and 2.5 mM probenecid), and the change of the intracellular calcium concentration was measured with time lapse using FLIPR (Fluorometric Imaging Plate Reader, made by Molecular Devices Corp.). The effect of a test compound influencing the increase in the intracellular calcium concentration was assayed by adding the test compound in various concentrations to the assay solutions, 5 minutes before the addition of orexin A, and the 50% inhibition concentration (IC50 value) of the test compound against the increase in intracellular calcium concentration caused by the addition of 0.3 nM orexin A was determined (Table 1).
On the technique in general: Calcium assays in cells follow changes in intracellular calcium, usually with a dye or a luminescent sensor.

Another experiment concerns the target T2, human OX2 receptor (Homo sapiens, UniProt O43614).
T2 construct: expressed in transfected cells
T2 sequence (O43614 1-444): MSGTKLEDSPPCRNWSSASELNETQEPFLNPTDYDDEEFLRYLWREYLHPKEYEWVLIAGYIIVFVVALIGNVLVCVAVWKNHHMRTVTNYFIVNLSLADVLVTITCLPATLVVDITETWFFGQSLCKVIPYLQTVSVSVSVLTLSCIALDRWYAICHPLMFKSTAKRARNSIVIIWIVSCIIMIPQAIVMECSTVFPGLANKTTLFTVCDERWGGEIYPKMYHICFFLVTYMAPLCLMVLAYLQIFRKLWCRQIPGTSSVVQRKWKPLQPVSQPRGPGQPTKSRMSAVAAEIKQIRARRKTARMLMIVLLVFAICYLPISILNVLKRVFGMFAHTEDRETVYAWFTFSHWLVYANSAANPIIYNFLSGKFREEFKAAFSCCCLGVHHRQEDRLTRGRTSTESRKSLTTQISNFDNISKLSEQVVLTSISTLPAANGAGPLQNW
The experiment in a line: Inhibition of orexin A-induced increase in intracellular calcium concentration (FLIPR), OX2 receptor expressing CHO-K1 cells. It is filed as cell-based. The following applies: CHO-K1 cells stably expressing human OX2 receptor; 0.3 nM orexin A; compound added 5 minutes before; fluo-3 AM; read-out: 50% Inhibition concentration, OX2 receptor.
From the text: as §1

Results on 4 molecules are retold here after patent US6838465B2, “N-acyltetrahydroisoquinoline derivatives” (Banyu Pharmaceutical Co., Ltd., priority 2000, dated 2005).

For the molecule `COc1cc2c(cc1OC)CN(C(=O)C(Cc1ccccc1)NC(=O)c1cc(Cl)cc(Cl)c1)CC2` (centres unmarked) [Example 4, N-[2-(6,7-dimethoxy-1,2,3,4-tetrahydroisoquinolin-2-yl)-2-oxo-1-benzylethyl](3,5-dichlorophenyl)carboxyamide], the IC50 at human OX1 receptor turned out to be 5.3 µM; on human OX2 receptor, 31 nM.
Taken in the same sequence, the figures for `COc1cc2c(cc1OC)CN(C(=O)[C@@H](NCc1nccs1)C(C)(C)C)CC2` [Example 8, (2S)-1-(6,7-dimethoxy-1,2,3,4-tetrahydroisoquinolin-2-yl)-3,3-dimethyl-2-((2-thiazolylmethyl)amino)butan-1-one] were 17 µM and 49 nM.
For `COc1cc2c(cc1OC)CN(C(=O)[C@@H](NCc1cccc(Br)c1)C(C)(C)C)CC2` [Example 23, (2S)-2-(3-bromobenzylamino)-1-(6,7-dimethoxy-1,2,3,4-tetrahydroisoquinolin-2-yl)-3,3-dimethylbutan-1-one] the same measures were 4.4 µM and 140 nM.
For the molecule `COc1cc2c(cc1OC)CN(C(=O)[C@@H](NCc1ccncc1)C(C)(C)C)CC2` [Example 6, (2S)-2-(N-4-pyridylmethyl)amino-1-(6,7-dimethoxy-1,2,3,4-tetrahydroisoquinolin-2yl)-3,3-dimethylbutan-1-one], the IC50 on human OX1 receptor is 24 µM; on human OX2 receptor it was 110 nM.
